The source of these data is publication PMC5520057, “Modulation of nongenomic activation of PI3K signalling by tetramerization of N-terminally-cleaved RXRα” (Nature Communications, 2017).

Assay [1] deals with T1, RXRα-LBD (Homo sapiens, UniProt P19793).
T1 construct: The human RXRα LBD (residues Thr223 to Thr462); made in house; host or cells: Escherichia coli BL21
T1 sequence (P19793 223-462): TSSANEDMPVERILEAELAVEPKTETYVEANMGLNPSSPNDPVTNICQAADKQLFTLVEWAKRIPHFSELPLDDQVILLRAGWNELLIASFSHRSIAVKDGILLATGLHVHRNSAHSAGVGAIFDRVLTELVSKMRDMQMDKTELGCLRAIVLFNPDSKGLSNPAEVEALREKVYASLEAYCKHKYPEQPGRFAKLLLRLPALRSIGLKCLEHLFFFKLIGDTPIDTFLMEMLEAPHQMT
Kind of assay: Gel filtration chromatography, RXRα-LBD. It counts as biochemical. Conditions: HiLoad 16/600 Superdex 200 pg, 50 mM Tris-Cl (pH 7.4), 200 mM NaCl, 1 ml min^−1; 2 h incubation; one of three similar experiments. On the procedure: The human RXRα LBD (residues Thr223 to Thr462) cloned as an N-terminal histidine-tagged fusion protein in pET15b expression vector was expressed in Escherichia coli BL21 strain (Stratagene). After sonication, cell extract was incubated with the His60 Ni Superflow resin, and His-tagged RXRα-LBD-resin complexes were washed, eluted and concentrated to 5 mg ml^−1 for subsequent trails. For crystallization experiment, bovine thrombin (Sigma) was used to cleave the His tag from the purified His-tagged RXRα-LBD. The resulting His tag was removed on the Resource-Q column (GE) using 0.1–1 M NaCl gradient and the Tris-Cl pH 8 buffer. RXRα-LDB was further purified using gel filtration on a Superdex 200 2660 column (GE) pre-equilibrated with the 75 mM NaCl, 20 mM Tris-Cl buffer (pH 8).
For orientation: In gel filtration, larger molecules generally elute earlier.

Assay [2] relates to MMTV-PyMT mammary tumour. As to the kind of experiment: MMTV-PyMT tumours, western blotting. It counts as in vivo, MMTV-PyMT mice. Conditions: diet with K-80003 (100 mg kg^−1) for 4 weeks. As to the method:
Proteins or cell lysates were electrophoresed by SDS-PAGE gel and transferred to polyvinylidene difluoride (PVDF) membrane. The membranes were blocked with 5% skimmed milk in TBST (50 mM Tris-HCl (pH 7.4), 150 mM NaCl and 0.1% Tween20) for 1 h, then incubated with primary antibodies and secondary antibodies and detected using ECL system (Thermo). The dilutions of the primary antibodies were anti-RXRα (ΔN197, Santa Cruz) in 1:1,000, anti-PARP (H-250, Santa Cruz) in 1:3,000, anti-p85α (Millipore) in 1:1,000, anti-p-AKT (D9E, Cell Signaling Technology) in 1:1000, anti-AKT1/2/3 (H-136, Santa Cruz) in 1:1,000, anti-β-actin (Sigma) in 1:5,000, anti-c-myc (9E10, Santa Cruz) in 1:3,000, anti-HA (F-7, Santa Cruz) in 1:3,000, anti-Flag (F1804, Sigma) in 1:3,000. Images of all uncropped western blots can be found in Supplementary Figs 10–14.
For nude mice xenograft study, Myc-RXRα and Myc-tRXRα cloned into pcdna3.0 vector were stably transfected into MCF-7 cells, and the resulting stable clones and control clone (2 × 10^6 cells in 100 μl) were injected subcutaneously into nude mice (BALB/c, SPF grade, 16–18 g, 4–5-week old). For drug treatment, mice were intraperitoneally injected (i.p.) daily with K-80003 (20 mg kg^−1) diluted in Tween-80 or vehicle (tween-80). Body weight and tumour size were measured every 2 days. […]
(In general: Immunoblotting shows a protein as a band on a membrane.)

Assay [3] relates to tRXRα. Further details: method as in PMID 20541701. Conditions: cited from earlier work.
Assay [4] relates to p85α / tRXRα/R316E interaction. As to the kind of experiment: coIP, p85α with tRXRα/R316E. In kind it is cell-based. The following applies: HEK293T cells; K-80003 (5 × 10^−6 M) for 6 h; coIP anti-HA.
Description: For coIP assay[29], HEK293T cells grown in 10 cm dishes were transfected with various plasmids. Cells were lysed in 1 ml of lysis buffer (20 mM Tris (pH 7.5), 150 mM NaCl, 1% Triton X-100, 1 mM EDTA, 30 mM NaF, 2 mM sodium pyrophosphate) with a cocktail of proteinase inhibitors (Roche). Lysates were incubated with the appropriate antibody for 12 h at 4 °C and subsequently incubated with protein A-Sepharose beads for 1 h. The immunoprecipitates were collected and washed three times with lysis buffer. The protein–antibody complexes recovered on beads were subjected to immunoblotting using appropriate antibodies after separation by SDS-PAGE. Input represents 5% of cell lysates used for coIP assays.

Regarding `CC1=C(CC(=O)O)c2cc(F)ccc2/C1=C\c1ccc(C(C)C)cc1` [K-80003], the “oligomeric state of RXRα-LBD by gel filtration” value in assay [1] was “mainly existed as a tetramer”. Further, in assay [2], the “PARP cleavage in PyMT tumours” value was “induction of PARP cleavage” and the “cyclin D expression in PyMT tumours” value is “inhibition of cyclin D expression”. Moreover, in assay [3], the “binding to tRXRα” value was “binds to tRXRα”. Further, the “modulation of tRXRα/R316E interaction with p85α” value in assay [4] is reported as “failed to modulate the interaction of both mutants with p85α”.
